# Test results reported in patent publication US20230159910A1, “DIMETHYLMONOTHIOARSINIC ACID-INDUCED MALIGNANTLY TRANSFORMED CELL LINE OF HUMAN KERATINOCYTES AND USE THEREOF” (SOOCHOW UNIVERSITY, priority 2021, published 2023).
# Assays:
# Type in all cases: cell-based, human
# [1] = tested on: HaCaT cells; test: Cell survival of HaCaT cells by CCK-8 kit (determination of exposure dose); conditions: HaCaT cells treated 24 h with 0-2 μM, FIG. 1
# Procedure: Determination of appropriate exposure dose: After the HaCaT cells were treated with various concentrations (0-2 μM) of DMMTA^v for 24 h, and the cell survival was detected by the CCK-8 kit. The chronic exposure dose of DMMTA^v is determined to be 1.0 μM.
# [2] = tested on: HaCaT cells; test: Cell doubling time after persistent exposure of sub-cultured HaCaT cells; conditions: persistent exposure to 1.0 μM; 28th, 35th passage; vs passage control, P<0.05; FIG. 3
# Procedure: (§1) Two dishes of normal HaCaT cells (cell passage 0) were prepared. One dish of cells was persistently and chronically exposed to and incubated with Dulbecco's modified Eagle's medium (DMEM) with high glucose with 1.0 μM DMMTAv (containing 100 μg/ml streptomycin, 100 U/ml penicillin and 10% fetal bovine serum), and the medium was refreshed every 24 h. When the cells were grown to a confluency reaching 80%, the cells were sub-cultured and expanded up to the 35th passage. The other dish of cells was persistently and chronically exposed to and normally incubated with Dulbecco's modified Eagle's medium (DMEM) with high glucose (containing 100 μg/ml streptomycin, 100 U/ml penicillin and 10% fetal bovine serum), and the medium was refreshed every 24 h. When the cells were grown to a confluency reaching 80%, the cells were normally sub-cultured and expanded up to the 35th passage and used as the passage control group. One monitoring point is set every 7 passages to detect the cell doubling time of the 0th, 1st, 7th, 14th, 21st, 28th, 35th passages in the exposure group and the passage control group.
# (§2) By detecting the changes in the matrix metalloproteinase-9 (MMP-9), the cell doubling time, the cell migration ability and cell anchoring independent growth, whether the cell undergoes malignant transformation is determined. […]
# [3] = tested on: HaCaT cells; test: Malignant transformation of HaCaT cells by long-term exposure; conditions: long-term exposure to 1.0 μM, subculture to 35th passage
# Procedure: as §1, §2
# [4] = tested on: HaCaT cells; test: MMP-9 secretion after persistent exposure of sub-cultured HaCaT cells; conditions: persistent exposure to 1.0 μM; 21st, 28th and 35th passages; P<0.05; FIG. 2
# Procedure: as §1, §2
# [5] = tested on: HaCaT cells; test: Cell migration ability by scratch test; conditions: persistent exposure to 1.0 μM, 35th passage, vs passage control, P<0.05, FIG. 4
# Procedure: as §1, §2
# [6] = tested on: HaCaT cells; test: Cell anchoring independent growth by soft agar colony forming test; conditions: persistent exposure to 1.0 μM, 35th passage, FIG. 5
# Procedure: as §1, §2
compound,measurement,setting,value
"C[As](C)(O)=S [DMMTA^v, dimethylmonothioarsinic acid]",dose with the highest cell survival rate (chronic exposure dose),[1],1.0 µM
same,cell doubling time,[2],significantly reduced
same,induction of malignant transformation of HaCaT cells,[3],can induce HaCaT cells to undergo malignant transformation
same,secretion of MMP-9 compared with the passage control group,[4],significantly increased
same,cell migration ability,[5],significantly enhanced
same,colony formation in soft agar,[6],can form obvious colonies in soft agar
same,colony formation rate compared with the passage control group cells,"[6]; soft agar, P<0.05",significantly higher
